Measurements from publication PMC3968691 (The FEBS journal, 2013).

Biological target: Sts-1PGM (suppressor of T-cell receptor signaling-1 PGM domain) (Mus musculus, UniProt Q8BGG7, E490Q/H380C)
Assay: biochemical

Sts-1PGM (suppressor of T-cell receptor signaling-1 PGM domain), sequence (Q8BGG7 369-638 H380C/E490Q): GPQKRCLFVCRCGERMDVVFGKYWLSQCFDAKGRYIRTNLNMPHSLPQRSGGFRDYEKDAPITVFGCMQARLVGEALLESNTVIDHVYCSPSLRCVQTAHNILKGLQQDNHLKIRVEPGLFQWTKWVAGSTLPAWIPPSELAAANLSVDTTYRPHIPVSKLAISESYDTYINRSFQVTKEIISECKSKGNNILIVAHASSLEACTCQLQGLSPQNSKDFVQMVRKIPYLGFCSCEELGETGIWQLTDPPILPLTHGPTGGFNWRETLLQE

Structure (SMILES): COc1ccc2c(c1)Oc1cc(OP(=O)(O)O)ccc1C21OC(=O)c2ccccc21 (stereo not shown) [OMFP]
- Kd: 5.71 µM
